Data published in the CheMixHub ionic liquid set.
Where “and” joins values, the source holds several entries; their conditions need not be identical. Equal values may be shown once. ± gives the uncertainty stated by the source.

Experiment: xn = mol fraction of the nth substance listed

CCCCCCCCn1cc[n+](C)c1.[Br-] + O + CCCCCCCCn1cc[n+](C)c1.F[B-](F)(F)F
298.15 K, 101 kPa
Conditions | electrical conductivity [S/m]
x1 = 0.0002342, x3 = 5.406e-05 | 0.15 ± 0.01
x1 = 0.001691, x3 = 0.0003242 | 0.8 ± 0.02
x1 = 0.002265, x3 = 0.0004503 | 0.99 ± 0.02
x1 = 0.002803, x3 = 0.0005403 | 1.11 ± 0.02
x1 = 0.00343, x3 = 0.0006663 | 1.24 ± 0.03
x1 = 0.004413, x3 = 0.0008642 | 1.37 ± 0.03
x1 = 0.004913, x3 = 0.0009541 | 1.45 ± 0.03

CCCCCCCCn1cc[n+](C)c1.[Br-] + O + CCCCCC[n+]1ccn(C)c1.[Br-]
electrical conductivity, 101.3 kPa
Conditions | x2 = 0.8977, x1 = 0.04147 | x2 = 0.8977, x1 = 0.06092 | x2 = 0.8993, x1 = 0.02123 | x2 = 0.8993, x1 = 0.07955 | x2 = 0.9473, x1 = 0.02113 | x2 = 0.9473, x1 = 0.03155 | x2 = 0.9477, x1 = 0.01078 | x2 = 0.9477, x1 = 0.04155
293.15 K | 3.55 S/m and 3.56 S/m and 3.57 S/m | 3.41 S/m and 3.44 S/m (2×) | 3.68 S/m and 3.69 S/m | 3.3 S/m and 3.31 S/m and 3.32 S/m | 3.98 S/m and 4 S/m and 4.01 S/m | 3.83 S/m and 3.85 S/m and 3.87 S/m | 4.14 S/m (2×) and 4.16 S/m | 3.7 S/m and 3.71 S/m and 3.72 S/m
298.15 K | 4.11 S/m and 4.12 S/m | 3.95 S/m and 3.96 S/m and 3.98 S/m | 4.25 S/m and 4.26 S/m | 3.81 S/m and 3.83 S/m and 3.84 S/m | 4.56 S/m and 4.6 S/m and 4.61 S/m | 4.4 S/m and 4.44 S/m (2×) | 4.74 S/m and 4.76 S/m and 4.77 S/m | 4.25 S/m and 4.26 S/m and 4.28 S/m
303.15 K | 4.67 S/m and 4.68 S/m and 4.7 S/m | 4.51 S/m and 4.52 S/m and 4.54 S/m | 4.85 S/m (2×) and 4.86 S/m | 4.36 S/m and 4.37 S/m and 4.38 S/m | 5.21 S/m and 5.22 S/m and 5.24 S/m | 5.01 S/m and 5.03 S/m and 5.05 S/m | 5.39 S/m and 5.4 S/m and 5.42 S/m | 4.84 S/m and 4.86 S/m and 4.87 S/m

CCOP(=O)([O-])OCC.CC[n+]1ccn(C)c1 + O + CS(C)=O
viscosity [mPa·s], 100 kPa
Conditions | 293.15 K | 303.15 K | 313.15 K | 323.15 K
x2 = 0.004, x3 = 0.497 | – | 53 ± 10 | – | –
x2 = 0.005, x3 = 0.768 | – | – | 9.6 ± 3.4 | 7.1 ± 2
x2 = 0.008, x3 = 0.886 | 5.9 | – | 3.5 ± 1.5 | 2.9 ± 1

CCCC[N+]1(C)CCCC1.O=S(=O)([N-]S(=O)(=O)C(F)(F)F)C(F)(F)F + O=C1CCCO1
100 kPa
Conditions | electrical conductivity [S/m] | viscosity [mPa·s]
303.15 K, x2 = 0.2019 | 0.461 ± 0.014 | 36.7 ± 1.5
308.15 K, x2 = 0.1075 | 0.459 ± 0.014 | 39.2 ± 1.6
308.15 K, x2 = 0.3004 | 0.638 ± 0.019 | 23.93 ± 0.97
308.15 K, x2 = 0.9498 | 1.31 ± 0.039 | –
313.15 K, x2 = 0.7009 | 1.67 ± 0.05 | 5.75 ± 0.23
313.15 K, x2 = 0.9498 | 1.41 ± 0.042 | –
318.15 K, x2 = 0.2019 | 0.705 ± 0.021 | 22.28 ± 0.9
318.15 K, x2 = 0.8509 | 2.23 ± 0.067 | –
318.15 K, x2 = 0.9498 | 1.5 ± 0.045 | –
323.15 K, x2 = 0.3004 | 0.905 ± 0.027 | 15.24 ± 0.62
323.15 K, x2 = 0.5999 | 1.57 ± 0.047 | 6.44 ± 0.26
323.15 K, x2 = 0.7009 | 1.98 ± 0.059 | 4.7 ± 0.19
323.15 K, x2 = 0.9498 | 1.6 ± 0.048 | –

CC[N+](C)(CC)CCOC.O=S(=O)([N-]S(=O)(=O)C(F)(F)F)C(F)(F)F + O=C1CCCO1
101 kPa
Conditions | electrical conductivity [S/m] | viscosity [mPa·s]
288.15 K, x1 = 0.1004 | 1.07 ± 0.011 | 5.77 ± 0.12
288.15 K, x1 = 0.2006 | 1.05 ± 0.011 | 8.69 ± 0.18
288.15 K, x1 = 0.4998 | 0.504 ± 0.01 | 39.28 ± 0.84
288.15 K, x1 = 0.6002 | 0.42 ± 0.01 | 63.7 ± 1.4
293.15 K, x1 = 0.1004 | 1.18 ± 0.012 | 4.642 ± 0.099
293.15 K, x1 = 0.3003 | 0.925 ± 0.01 | 12.34 ± 0.26
293.15 K, x1 = 0.4998 | 0.589 ± 0.01 | 30.79 ± 0.66
293.15 K, x1 = 1 | 0.184 ± 0.01 | 162.2 ± 6.7
298.15 K, x1 = 0.1004 | 1.305 ± 0.013 | 3.697 ± 0.079
298.15 K, x1 = 0.4007 | 0.841 ± 0.01 | 15.12 ± 0.32
303.15 K, x1 = 0.6999 | 0.592 ± 0.01 | 39.92 ± 0.85
303.15 K, x1 = 1 | 0.301 ± 0.01 | 89.7 ± 2.4
308.15 K, x1 = 0.3003 | 1.28 ± 0.013 | 7.61 ± 0.16
308.15 K, x1 = 0.4007 | 1.08 ± 0.011 | 10.57 ± 0.23
308.15 K, x1 = 0.4998 | 0.904 ± 0.01 | 15.55 ± 0.33
308.15 K, x1 = 0.9003 | 0.463 ± 0.01 | 51.6 ± 1
313.15 K, x1 = 0.1004 | 1.644 ± 0.016 | 1.923 ± 0.041
313.15 K, x1 = 0.2006 | 1.76 ± 0.018 | 3.958 ± 0.084
313.15 K, x1 = 0.8001 | 0.676 ± 0.01 | 30.48 ± 0.65
318.15 K, x1 = 0.6002 | 1.021 ± 0.01 | 14.49 ± 0.31
323.15 K, x1 = 0.2006 | 2.07 ± 0.021 | 2.954 ± 0.063
323.15 K, x1 = 0.4007 | 1.5 ± 0.015 | 6.43 ± 0.14
323.15 K, x1 = 0.4998 | 1.29 ± 0.013 | 8.64 ± 0.18
323.15 K, x1 = 0.6002 | 1.145 ± 0.011 | 11.6 ± 0.3
328.15 K, x1 = 0.6002 | 1.28 ± 0.013 | 9.45 ± 0.2
328.15 K, x1 = 1 | 0.706 ± 0.01 | 26.35 ± 0.56
333.15 K, x1 = 0.4007 | 1.812 ± 0.018 | 4.73 ± 0.1
333.15 K, x1 = 1 | 0.816 ± 0.01 | 21.31 ± 0.45
343.15 K, x1 = 0.3003 | 2.44 ± 0.024 | 2.72 ± 0.058
343.15 K, x1 = 0.4998 | 1.926 ± 0.019 | 4.472 ± 0.095
348.15 K, x1 = 0.4007 | 2.346 ± 0.023 | 3.095 ± 0.066
348.15 K, x1 = 0.6999 | 1.68 ± 0.017 | 5.09 ± 0.11
348.15 K, x1 = 0.9003 | 1.328 ± 0.013 | 9.11 ± 0.19
353.15 K, x1 = 0.2006 | 3.09 ± 0.031 | 1.361 ± 0.029
353.15 K, x1 = 0.3003 | 2.85 ± 0.029 | 2.11 ± 0.045
353.15 K, x1 = 0.6002 | 2.05 ± 0.02 | 3.425 ± 0.073
353.15 K, x1 = 0.9003 | 1.46 ± 0.015 | 7.16 ± 0.15

C1CCC2=NCCCN2CC1 + O=S(=O)([N-]S(=O)(=O)C(F)(F)F)C(F)(F)F.[Li+]
101 kPa, frequency 0 MHz, x1 = 0.8
Conditions | electrical conductivity [S/m]
328.15 K | 0.00259 ± 3e-05
338.15 K | 0.00474 ± 6e-05
348.15 K | 0.0114 ± 0.00015

101 kPa, x1 = 0.8
Conditions | viscosity [mPa·s]
328.15 K | 3336 ± 470
348.15 K | 358 ± 24

O=S(=O)([N-]S(=O)(=O)C(F)(F)F)C(F)(F)F.[Na+] + O=S(=O)([N-]S(=O)(=O)C(F)(F)F)C(F)(F)F.[Li+]
100 kPa, frequency 1 MHz, x2 = 0.67
Conditions | electrical conductivity [S/m]
473.6 K | 0.114 ± 0.012
483.1 K | 0.156 ± 0.016
492.1 K | 0.205 ± 0.021
502.4 K | 0.269 ± 0.028
512.5 K | 0.342 ± 0.035
523.2 K | 0.435 ± 0.045
531.5 K | 0.533 ± 0.054
543.3 K | 0.635 ± 0.064
552 K | 0.753 ± 0.077
561.2 K | 0.91 ± 0.092
571 K | 1.02 ± 0.1

100 kPa, x2 = 0.67
Conditions | viscosity [mPa·s]
473.9 K | 411 ± 47
483.1 K | 267 ± 30
492.6 K | 203 ± 22
502.5 K | 146 ± 16
512.8 K | 106 ± 11
523.6 K | 78.1 ± 8.2
531.9 K | 60.7 ± 6.3
543.5 K | 46.8 ± 4.8
552.5 K | 36.2 ± 3.8
561.8 K | 29.1 ± 3

CCCCCCCCn1cc[n+](C)c1.[Br-] + OC1OC[C@@H](O)[C@H](O)[C@H]1O + O
298.15 K, 101 kPa
Conditions | viscosity [mPa·s]
x2 = 0, x1 = 0.001831 | 0.965 ± 0.014
x2 = 0, x1 = 0.003598 | 1.025 ± 0.015
x2 = 0, x1 = 0.005443 | 1.103 ± 0.015
x2 = 0, x1 = 0.007132 | 1.172 ± 0.015

CCn1cc[nH+]c1.[Cl-] + OCC(O)CO
Conditions | viscosity [mPa·s]
303.15 K, 100 kPa, x1 = 0.333 | 65.7 ± 0.7
